{
  "source": "patent US20040049072A1",
  "about": "“RXR modulators with improved pharmacologic profile” (priority 1999, published 2004)",
  "key": {"[1]": {"biological_target": "T1, RXRα:PPARγ heterodimer (Homo sapiens, UniProt P19793)", "T1 construct": "expressed in transfected cells; host or cells: CV-1 cells", "T1 sequence (P19793 1-462)": "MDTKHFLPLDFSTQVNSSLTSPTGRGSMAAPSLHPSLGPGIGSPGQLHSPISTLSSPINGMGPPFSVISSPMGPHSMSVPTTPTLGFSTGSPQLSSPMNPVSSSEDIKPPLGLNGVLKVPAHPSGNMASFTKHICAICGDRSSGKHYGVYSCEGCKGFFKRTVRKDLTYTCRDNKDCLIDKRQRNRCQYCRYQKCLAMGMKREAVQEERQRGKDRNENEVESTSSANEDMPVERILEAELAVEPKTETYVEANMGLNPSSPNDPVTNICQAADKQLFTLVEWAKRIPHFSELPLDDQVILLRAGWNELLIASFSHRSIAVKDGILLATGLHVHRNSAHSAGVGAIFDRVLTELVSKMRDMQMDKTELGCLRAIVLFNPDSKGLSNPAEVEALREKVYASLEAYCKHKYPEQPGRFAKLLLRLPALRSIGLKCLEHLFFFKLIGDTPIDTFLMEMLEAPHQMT", "T1 sequence (P37231 1-505 partner)": "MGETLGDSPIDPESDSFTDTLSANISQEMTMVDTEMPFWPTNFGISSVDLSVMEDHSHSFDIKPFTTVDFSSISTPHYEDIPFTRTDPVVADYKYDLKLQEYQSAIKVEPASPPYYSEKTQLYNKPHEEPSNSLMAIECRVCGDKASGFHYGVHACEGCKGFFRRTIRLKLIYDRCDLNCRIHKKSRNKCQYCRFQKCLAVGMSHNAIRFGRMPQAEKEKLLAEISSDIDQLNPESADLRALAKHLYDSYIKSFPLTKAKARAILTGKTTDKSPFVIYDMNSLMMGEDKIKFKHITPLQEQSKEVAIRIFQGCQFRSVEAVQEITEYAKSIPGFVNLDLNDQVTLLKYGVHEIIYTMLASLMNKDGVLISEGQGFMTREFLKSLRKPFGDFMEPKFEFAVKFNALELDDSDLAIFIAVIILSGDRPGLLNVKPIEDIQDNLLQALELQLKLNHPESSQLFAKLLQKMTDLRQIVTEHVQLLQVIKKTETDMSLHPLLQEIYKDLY", "test": "RXR:PPARγ heterodimer co-transfection assay in CV-1 cells", "assay_type": "cell-based", "settings": "maximal response relative to response of BRL 49653", "description": "(§1) For determination of agonist activity in the context of the RXR:RAR heterodimer or the RXR:PPARγ heterodimer, media containing compounds of the present invention in concentrations ranging from 10^−10 to 10^−5 M were added to the cells.\n(§2) Compounds of the present invention were also tested for the ability to synergize with a PPARγ agonist in the context of an RXR heterodimer. […] Efficacy of the compounds of the present invention in the agonist and synergy assays was calculated as the maximum response obtained over the range of the dose response curve relative to the maximum response obtained by the reference agonist. Antagonist efficacy was determined as a function (%) of maximal inhibition.\nTo examine the effects of the compounds of the present invention on the transcriptional properties of the RXR:PPARγ, a heterodimer cotransfection assay as described above was employed."}, "[2]": {"tested_on": "db/db mouse", "test": "db/db mouse study (rodent model of Type II diabetes)", "settings": "for insulin sensitizing activity with thyroid axis suppression and triglyceride elevations: rodent models of Type II Diabetes", "quoted_text": "Mice (obtained from Jackson Laboratory), ZDF rats (obtained from Genetic Models Inc.) and fa/fa rats (obtained from either Charles River, or Harlan) were maintained on 12-hour light/dark cycle. […] Compounds were administered at the specified doses by oral gavage on the morning of each day of any experiment. Blood samples were obtained 3 hours after dosing from fed animals under anesthesia and collected into heparinized capillary tubes from the tail vein."}, "[3]": {"biological_target": "T2, RXRα:RAR heterodimer (Homo sapiens, UniProt P19793)", "T2 construct": "expressed in transfected cells; host or cells: CV-1 cells", "T2 sequence (P19793 1-462)": "T1 sequence (P19793 1-462)", "test": "RXR:RAR heterodimer co-transfection assay in CV-1 cells", "assay_type": "cell-based", "description": "as §1, §2\nHowever, when RAR is occupied, typical RXR agonists activate the heterodimer. […] To examine the effects of the compounds of the present invention on the transcriptional properties of the RXR:RAR heterodimer, a heterodimer cotransfection assay as described above was employed."}},
  "note": "Entries after “also recorded” stand apart in the source; their conditions may differ.",
  "data": [
    {"compound": "CN(CCOc1ccc(CC2SC(=O)NC2=O)cc1)c1ccccn1", "note": "(centres unmarked) [BRL 49653, reference compound]", "values": [
      {"measurement": "RXRα:PPARγ Heterodimer Cotransfection Assay Agonist Efficacy (%)", "setting": "[1]", "value": 100, "unit": "%"}
    ]},
    {"compound": "CCCCCOc1c(\\C(C)=C/C=C/C(C)=C/C(=O)O)cc(C(C)C)cc1C(C)C", "note": "[Compound L7]", "values": [
      {"measurement": "insulin sensitizing activity with thyroid axis suppression and triglyceride elevations", "setting": "[2]", "value": "maintain the desirable insulin sensitizing activity and eliminate or reduce both the suppression of the thyroid axis and triglyceride elevations; also recorded: maintain the desirable insulin sensitizing activity and minimize both the suppression of the thyroid axis and triglyceride elevations"}
    ]},
    {"compound": "CCCOc1c(C2=C(/C=C/C(C)=C/C(=O)O)CCC2)cc(C(C)C)cc1C(C)C", "note": "[Compound L8]", "values": [
      {"measurement": "insulin sensitizing activity with thyroid axis suppression and triglyceride elevations", "setting": "[2]", "value": "maintain the desirable insulin sensitizing activity and minimize both the suppression of the thyroid axis and triglyceride elevations"}
    ]},
    {"compound": "CCCCOc1c(C2=C(/C=C/C(C)=C/C(=O)O)CCC2)cc(C(C)C)cc1C(C)C", "note": "[Compound L9]", "values": [
      {"measurement": "insulin sensitizing activity with thyroid axis suppression and triglyceride elevations", "setting": "[2]", "value": "maintain the desirable insulin sensitizing activity and minimize both the suppression of the thyroid axis and triglyceride elevations"}
    ]},
    {"compound": "C/C(=C/C=C/C(C)=C/C(=O)O)c1cc(C(C)(C)C)cc(C(C)(C)C)c1OCC(F)F", "note": "[Compound L13]", "values": [
      {"measurement": "inhibition in vivo at 30 mg/kg", "setting": "[2]; Mus musculus, po, 168 h, read-out: db/db mouse Glu. (D7)", "value": 54, "unit": "%"},
      {"measurement": "db/db mouse Trigs. (D3)", "setting": "[2]; plasma triglycerides as % of control values, day 3, 30 mg/kg/day", "value": 109, "unit": "%"},
      {"measurement": "insulin sensitizing activity with thyroid axis suppression and triglyceride elevations", "setting": "[2]", "value": "maintain the desirable insulin sensitizing activity and minimize both the suppression of the thyroid axis and triglyceride elevations"}
    ]},
    {"compound": "C/C(=C\\c1ccc(C(=O)O)cc1)c1ccc2c(c1)C(C)(C)CCC2(C)C", "note": "[TTNPB, (E)-4-[2-(5,6,7,8-tetrahydro-5,5,8,8-tetramethyl-2-naphthalenyl)-1-propenyl]benzoic acid, reference compound]", "values": [
      {"measurement": "Emax", "setting": "[3]; CV-1, read-out: RXRα:RAR Heterodimer Cotransfection Assay Agonist Efficacy (%)", "value": 115, "unit": "%"},
      {"measurement": "agonist activity on the RXR:RAR heterodimer", "setting": "[3]; compound alone", "value": "strongly transactivate"}
    ]},
    {"compound": "CN(C)C(=N)N=C(N)N", "note": "[metformin, reference compound]", "values": [
      {"measurement": "efficacy over 3 subsequent weeks", "setting": "[2]; 7 week old db/db mice, 300 mg/kg daily oral gavage", "value": "decreases"},
      {"measurement": "plasma glucose", "setting": "[2]; 7 week old db/db mice, 300 mg/kg daily oral gavage, maximum effect after first week", "value": "lowers plasma glucose"}
    ]}
  ]
}
